How the values were obtained:
[1] = at 25° C.; cited from earlier work
[2] = tested on: subjects with an aneurysmal subarachnoid hemorrhage (aSAH); assay: NEWTON Phase 1/2 study, efficacy and safety; format: in vivo, human
Description: NEWTON (Nimodipine microparticles to Enhance recovery While reducing TOxicity after subarachNoid hemorrhage) was a multicenter, randomized, controlled, open-label Phase 1/2 study evaluating the safety, tolerability and pharmacokinetics of escalating doses of a polymeric nimodipine microparticle suspended in a diluent of hyaluronic acid (EG-1962) compared to the current standard of care, oral nimodipine, in subjects with an aneurysmal subarachnoid hemorrhage (aSAH).
Fifty-four patients were randomized to receive EG-1962 and 18 patients were randomized to receive oral nimodipine.
The primary endpoint was to establish the maximum tolerated dose, which has been determined to be 800 mg. […] The secondary endpoint of characterizing the pharmacokinetics of EG-1962 was also met. The steady-state plasma concentration measured in patients treated with EG-1962 was below 30 ng/ml, the level of plasma concentration observed to cause systemic hypotension.

Row | Compound | solubility in water [1] | patients who achieved a favorable outcome (scores of 6-8, Extended Glasgow Outcome Score [GOSE]) ([2]; at 90 days, pooled efficacy results) | patients who experienced drug-related hypotension ([2]; human, in vivo)
1 | COCCOC(=O)C1=C(C)NC(C)=C(C(=O)OC(C)C)C1c1cccc([N+](=O)[O-])c1 (racemic) [Mod I, Nimodipine] | 0.036±0.007 mg 100 mL^−1 | – | –
2 | COCCOC(=O)C1=C(C)NC(C)=C(C(=O)OC(C)C)C1c1cccc([N+](=O)[O-])c1 (stereo not shown) [Mod II, Nimodipine] | 0.018±0.004 mg 100 mL^−1 | – | –
3 | COCCOC(=O)C1=C(C)NC(C)=C(C(=O)OC(C)C)C1c1cccc([N+](=O)[O-])c1 (stereo not shown) [nimodipine, isopropyl(2-methoxyethyl)-1,4-dihydro-2,6-dimethyl-4-(3-nitrophenyl)-3,5-pyridinedicarboxylate] | – | 28% | 17%

Source: patent US20180098977A1, “SCALABLE MICROPARTICULATE FORMULATIONS CONTAINING POLYMORPHIC NIMODIPINE FORM 2 PREPARED BY A SOLVENT EVAPORATION PROCESS” (Edge Therapeutics, Inc., priority 2016, published 2018)
